Experimental findings from ChEMBL document CHEMBL1144690, “Isolation of cytotoxic metabolites from targeted peruvian amazonian medicinal plants” (2008) are described below.

In the experiment the test system is Mycobacterium tuberculosis. In words: Antimicrobial activity against multidrug resistant Mycobacterium tuberculosis. Format: functional.

Each structure is given as a SMILES string. In brackets after ≈: the same amount, converted by molar mass.

The term MIC denotes the lowest concentration that inhibits growth of the organism. The low end stands for greater potency, the high end for weaker potency. Take `C/C=C1/CN2CC[C@@]34c5ccccc5N5/C=C6/[C@H]7C[C@@H]8N(CC[C@@]89c8ccccc8N(/C=C(/[C@H]1C[C@H]23)[C@H]54)[C@@H]69)C/C7=C/C` [BISNORDIHYDROTOXIFERINE]: the minimal inhibitory concentration (MIC) worked out at 6.25 µg/mL (≈ 11.3 µM).
